Assay results as given in US8802695B2, “Apoptosis signal-regulating kinase 1 inhibitors” (Takeda Pharmaceutical Company Limited, priority 2010, dated 2014).
pIC50: −log10 of the molar value.

Columns and labels:
ASK1 [1] = biological target: T1, ASK1 (Homo sapiens (Human), UniProt Q99683); assay: Scintillation assay for inhibitory effect against ASK1 (Example B; myelin basic protein substrate, [γ-32P]ATP); format: biochemical; settings: 2.5 μM ATP solution, read-out: Enzyme Activity B IC50
From the text: (§1) The inhibitory effect of the compound of the invention on ASK1 may be evaluated by evaluating the phosphorylating activity of the enzyme on a known substrate with or without the presence of the test compound. Example B provides such an assay where myelin basic protein (Wako) is used as substrate and detection is by scintillation counting. It should be understood other substrates and detection mechanism may be used. A commercially available a kit, Cisbio's HTRF® KinEASE™ STK kit, has shown to be useful for evaluating ASK1 activity. The assay uses an anti-phosphoseric specific, Eu^3+-Cryptate labeled antibody to mark the phosphorylated product of ASK1 on a biotinylated kinase substrate, and detection is by time resolved fluorescence using XL665 labeled streptavidin. The fluorescence intensity is proportional to the amount of product formation. Example C provides the assay protocol.
Cloning of cDNA encoding human ASK1 was conducted by PCR using primers, 5′-[…] […]-3′ (SEQ ID NO: 1) and 5′-AAAGCGGCCGCTCAA […]-3′ (SEQ ID NO: 2), from human heart cDNA library (Becton, Dickinson and Company). The PCR product was subjected to agarose gel (1%) electrophoresis, a 2.2 kb DNA fragment containing an ASK1 gene was recovered from the gel, and then digested with restriction enzymes, NotI and SalI, and inserted into a plasmid pFASTBAC1 (Invitrogen) to prepare a plasmid pFB-ASK1. The insert was verified by sequencing. Recombinant baculovirus was prepared according to the procedure of the Bac-to-Bac baculovirus expression system (Invitrogen).
Sf-21 cells were seeded to achieve 1×10^6 cells/mL in 100 mL of Sf-900 II SFM medium (Invitrogen) which contains 10% fetal calf serum and then cultured at 27° C. for 24 hrs. To express ASK1 in cells, 0.15 mL of the recombinant baculovirus virus stock was added to cells, and the then cultured for 60 hrs. The cells were separated from the culture solution by centrifugation at 3000 rpm for 10 min and washed once with PBS. The cells were suspended in 10 mL of lysis buffer (25 mM HEPES (pH 7.5), 1% Triton X, 130 mM NaCl, 1 mM EDTA, 1 mM DTT, 25 mM (3-glycerophosphate, Protease inhibitor complete (Roche), 1 mM sodium orthovanadate) and ruptured by four times of treatment with a homogenizer (POLYTRON) at 20000 rpm for 30 seconds. Active ASK1 protein was purified from a supernatant obtained by centrifugal separation at 40000 rpm for 45 min using anti-FLAG M2 Affinity Gel (Sigma).
Scintillation Assay for Measuring the Inhibitory Effect of Exemplified Compounds of the Invention Against ASK1
The test compounds (2.5 μL) dissolved in DMSO were added to wells containing 37.5 μL of the reaction solution (25 mM HEPES (pH 7.5), 10 mM magnesium acetate, 1 mM DTT) including 30 ng of active ASK1 protein and 1 μg of myelin basic protein (Wako), and incubated at room temperature for 5 min. To start the reaction, 10 μL of ATP solution (2.5 μM ATP, 0.1 μCi [γ-^32P]ATP) was added to wells. After incubating at room temperature for 30 min, the reaction was terminated by adding 50 μL of 20% TCA solution. The reaction solution was incubated at 4° C. for 30 min and an acid-insoluble fraction was transferred onto a GF/C filter (Packard) with Cell Harvester (Packard), and washed with 250 mM phosphoric acid. After drying at 45° C. for 60 min., 40 μL of Microscint 0 (Packard) was added and the radioactivity was measured with TopCount (Packard). The concentrations (IC50 value) of the test compounds necessary for 50% inhibition of kinase activity were calculated by PRISM 3.0 (Graphpad Software).
Target sequence in this assay (Q99683 650-1374): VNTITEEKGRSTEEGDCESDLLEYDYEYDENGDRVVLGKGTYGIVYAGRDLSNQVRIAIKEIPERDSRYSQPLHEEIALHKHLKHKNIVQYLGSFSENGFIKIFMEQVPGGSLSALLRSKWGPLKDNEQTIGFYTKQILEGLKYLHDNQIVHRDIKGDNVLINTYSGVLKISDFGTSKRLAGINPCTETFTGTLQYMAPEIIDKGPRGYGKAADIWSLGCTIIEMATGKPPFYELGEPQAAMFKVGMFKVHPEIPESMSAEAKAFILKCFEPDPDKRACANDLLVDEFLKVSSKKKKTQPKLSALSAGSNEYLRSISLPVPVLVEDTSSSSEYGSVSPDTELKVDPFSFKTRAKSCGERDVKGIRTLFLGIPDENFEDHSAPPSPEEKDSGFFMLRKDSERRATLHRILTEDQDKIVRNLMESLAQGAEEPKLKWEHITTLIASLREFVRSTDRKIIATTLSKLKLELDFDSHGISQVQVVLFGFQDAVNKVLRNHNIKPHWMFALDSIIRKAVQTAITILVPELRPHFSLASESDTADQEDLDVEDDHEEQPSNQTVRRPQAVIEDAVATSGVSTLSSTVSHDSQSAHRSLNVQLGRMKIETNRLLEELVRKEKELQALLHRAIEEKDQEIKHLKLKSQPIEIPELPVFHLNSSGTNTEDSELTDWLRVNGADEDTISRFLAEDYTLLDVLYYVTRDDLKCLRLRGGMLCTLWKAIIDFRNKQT

ASK1 [2] = biological target: T1, ASK1; assay: Homogeneous Time-Resolved Fluorescence (HTRF) assay for inhibitory effect against ASK1 (Example C; KinEASE STK S3 kit); format: biochemical; settings: 25 nM ASK1, 100 μM ATP, read-out: Enzyme Activity C IC50
From the text: as §1
Target sequence in this assay (Q99683 649-946): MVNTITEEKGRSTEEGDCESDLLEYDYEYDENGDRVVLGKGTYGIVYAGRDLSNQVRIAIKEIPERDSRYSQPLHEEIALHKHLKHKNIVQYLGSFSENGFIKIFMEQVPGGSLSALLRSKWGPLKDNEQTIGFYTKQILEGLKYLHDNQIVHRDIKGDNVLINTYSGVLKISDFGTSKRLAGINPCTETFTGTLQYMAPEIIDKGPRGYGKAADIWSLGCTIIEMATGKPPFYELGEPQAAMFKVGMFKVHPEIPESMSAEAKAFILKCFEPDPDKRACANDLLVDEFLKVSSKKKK
Homogeneous Time-Resolved Fluorescence (HTRF) Assay for Measuring the Inhibitory Effect of Exemplified Compounds of the Invention Against ASK1
Recombinant human ASK1 is purchased from Millipore (Cat #14-606). The enzymatic assay of ASK1 is set up by using HTRF® KinEASE™ STK S3 kit, the Universal Assay for Serine/Threonine Kinases kit from CisBio.
The inhibitory properties of compounds to ASK1 may be determined using a white 384-well-plate format under the following reaction conditions: 25 nM ASK1, 1 μM CisBio STK S3-biotion peptide, 100 μM ATP, and 1%-2% DMSO in kinase assay buffer of 50 mM HEPES, pH 7.3, 10 mM NaCl, 10 mM MgCl2, 0.01% Brij35, 0.2 mM EDTA, and 1 mM DTT. Reaction product is determined quantitatively by HTRF after the addition of detection reagent SA-XL665 and STK-antibody-cryptate.
The assay reaction may be initiated as follows: 2 μl of the mixture of 3 μM CisBio STK S3-biotion peptide and 300 μM ATP with 2 μl of test compound (2 fold serial dilutions for 11 data points for each inhibitor) containing 3%-6% DMSO are added to each well of the plate, followed by the addition of 2 μL of 75 nM ASK1 to initiate the reaction (final enzyme concentration was 25 nM for ASK1). The reaction mixture may then be incubated at room temperature for 1 hour, and quenched and developed by the addition of 6 μL of 100-fold diluted STK-antibody-Cryptate and 250 nM SA-XL665 in Cisbio HTRF detection buffer (50 mM HEPES, pH7.0, 0.1% BSA, 0.8 M KF, and 20 mM EDTA). The fluorescence intensity is measured at 620 nm (Cryptate) and 665 nm (XL665) after a 1-2 hour incubation at room temperature. A ratio is calculated (665/620) for each well and is fitted to the standard IC50 curve to determine inhibition constants (IC50).

Row | pIC50 (ASK1 [1]) | pIC50 (ASK1 [2]) | melting point | SMILES
1 | 8.22 | 7.80 | 224.4 to 225.1 °C | CCn1cc(Cl)c2cnc(NC(=O)c3ccc([C@@](C)(O)CO)cc3)cc21 [Compound 14, (R)—N-(3-chloro-1-ethyl-1H-pyrrolo[3,2-c]pyridin-6-yl)-4-(1,2-dihydroxypropan-2-yl)benzamide]
2 | 8.05 | 7.92 | 223 to 223.9 °C | CCn1cc(Cl)c2cnc(NC(=O)c3ccc([C@](C)(O)CO)cc3)cc21 [Compound 26, (S)—N-(3-chloro-1-ethyl-1H-pyrrolo[3,2-c]pyridin-6-yl)-4-(1,2-dihydroxypropan-2-yl)benzamide]
3 |  | 7.72 | 210 to 212 °C | Cn1cc(Cl)c2cnc(NC(=O)c3ccc([C@@](C)(O)CO)cc3)cc21 [Compound 31, (R)—N-(3-chloro-1-methyl-1H-pyrrolo[3,2-c]pyridin-6-yl)-4-(1,2-dihydroxypropan-2-yl)benzamide]
